Reference: US11613556B2, “Oxysterols and methods of use thereof” (Sage Therapeutics, Inc., priority 2016, dated 2023)
Like-named read-outs stand apart in the source and are kept apart here.

What was measured:
Type in all cases: cell-based
[1] = target: glutamate-activated channels of the GRIN1/2A subtype stably transfected in HEK 293 cells (Homo sapiens (Human), UniProt Q05586+Q12879); test: Automated patch-clamp system (QPatch HTX), percent potentiation at 1 μM; settings: HEK293, 1 μM test compound, 300 μM NMDA with 8 μM glycine, HEK 293 GRIN1/2A, read-out: GluN2A PCA % potentiation at 1 μM
Method: (§1) NMDA potentiation in mammalian cells which expressed NMDA receptors was assessed using the automatic patch-clamp system can be used determine the NAM activity of compounds as described below. An whole cell patch-clamp system can be used determine the PAM activity of compounds as described below.
Automated Patch-Clamp System (OPatch HTX):
In this study, HEK 293 cells stably transfected with glutamate-activated channels of the GRIN1/2A subtype will be used together with submaximal NMDA concentrations (300 μM NMDA, co-application with 8 μM Glycine) to investigate the negative allosteric modulation of the test compounds.
In general, cells will be passaged at a confluence of about 80% to […]. For electrophysiological measurements cells will be harvested at a confluence of about 80% to 90% from sterile culture flasks containing culture complete medium. Cells will be transferred as suspension in PBS to the QPatch 16X or QPatch HTX system to the centrifuge/washer directly.
Standard Laboratory Conditions: Cells will be incubated at 37° C. in a humidified atmosphere with 5% CO2 (rel. humidity about 95%).
Culture media: The cells will be continuously maintained in and passaged in sterile culture flasks containing a 1:1 mixture of Dulbecco's modified eagle medium and nutrient mixture F-12 (D-MEM/F-12 1×, liquid, with L-Glutamine) supplemented with 10% fetal bovine serum, 1% Penicillin/Streptomycin solution, and 50 μM AP-5 blocker.
Antibiotics: The complete medium as indicated above is supplemented with 100 μg/mL hygromycin, 15 μg/mL blasticidin and 1 μg/mL puromycin.
Induction of Expression: 2.5 μg/mL tetracycline is added 24 h before start of experiments.
Dose levels are in terms of test compounds, as supplied. Vehicle will be added to achieve a stock concentration of 10 mM (storage at −10° C. to −30° C.). A further stock solutions of 1.0 mM will be prepared in DMSO. Details of stock solution usage (thawing, dose formulations) will be documented in the raw data. The time period of stock solution usage will be detailed in the report.
Test Compound Concentrations
One test concentration of 1.0 μM will be tested.
All test solutions will be prepared by diluting the stock solutions with either Mg-free bath solution only or Mg-free bath solution containing NMDA (300 μM) and glycine (8.0 μM) shortly prior to the electrophysiological experiments and kept at room temperature (19° C. to 30° C.) when in use. 0.1% DMSO will be used as vehicle.
Frequency of preparation: For each test concentration, fresh solutions of test compounds will be prepared every day.
Stability of dose formulation: All preparation times will be documented in the raw data. Any observations regarding instability of test compounds will be mentioned in the raw data.
Storage of dose formulation: On the day of experimentation dose formulations will be maintained at room temperature (19° C. to 30° C.) when in use.
For preparing the experiments and for formation of the giga-ohm-seal, the following standard bath solution will be used:
Sodium Chloride: 137 mM; Potassium Chloride: 4 mM; Calcium Chloride: 1.8 mM; Magnesium Chloride: 1 mM; HEPES: 10 mM; D-Glucose: 10 mM; Cremophor: 0.02%; pH (NaOH): 7.4
The 1× bath solution will be prepared by diluting 10× bath solution without Glucose and 100× Glucose solution with water at least every 7 days. Both stock solutions have been prepared prior to the experimental start of the present study and stored at 1° C. to 9° C. (10× bath solution) or −10° C. to −30° (100× Glucose solution). The batch number(s) of the bath solution(s) used in the experiments will be documented in the raw data. When in use, the 1× bath solution will be kept at room temperature (19° C. to 30° C.). When not in use, the 1× bath solution will be stored at 1° C. to 9° C.
After the giga-seal was formed the following Mg-free bath solution will be used:
Sodium Chloride: 137 mM; Potassium Chloride: 4 mM; Calcium Chloride; 2.8 mM; HEPES: 10 mM; D-Glucose: 10 mM; Cremophor: 0.02%; pH (NaOH): 7.4 […]

[2] = target: GluN1/GluN2A glutamate receptors (human GRIN1/GRIN2A) expressed in HEK293 cells (Homo sapiens (Human), UniProt Q05586+Q12879); test: Whole-cell patch clamp of mammalian cells (Ionworks Barracuda), positive allosteric modulation, GluN1/GluN2A; settings: for Emax: read-out: GluN2A PCA EMax (%)
Method: as §1
(§2) The measurements were performed using Ion Works Barracuda platform following this procedure:
(§3) Electrophysiological Procedures: • a) Intracellular solution (mM): 50 mM CsCl, 90 mM CsF, 2 mM MgCl2, 5 mM EGTA, 10 mM HEPES. Adjust to pH 7.2 with CsOH. • b) Extracellular solution, HB-PS (composition in mM): NaCl, 137; KCl, 1.0; CaCl2, 5; HEPES, 10; Glucose, 10; pH adjusted to 7.4 with NaOH (refrigerated until use). • c) Holding potential: −70 mV, potential during agonist/PAM application: −40 mV.
(§4) Recording Procedure: • a) Extracellular buffer will be loaded into the PPC plate wells (11 μL per well). Cell suspension will be pipetted into the wells (9 μL per well) of the PPC planar electrode. • b) Whole-cell recording configuration will be established via patch perforation with membrane currents recorded by on-board patch clamp amplifiers. • c) Two recordings (scans) will be performed. First, during pre-application of test article alone (duration of pre-application—5 min) and second, during test articles and agonist (EC20 L-glutamate and 30 μM glycine) co-application to detect positive modulatory effects of the test article.
(§5) Test Article Administration: The first pre-application will consist of the addition of 20 μL of 2× concentrated test article solution and, second, of 20 μL of 1× concentrated test article and agonist at 10 μL/s (2 second total application time).
(§6) Potentiating Effect of Positive Allosteric Modulators (PAM) on the Channel
(§7) The maximal amplitude of the evoked currents are measured and defined as Peak Current Amplitude (PCA).

[3] = target: GluN2B glutamate receptors expressed in mammalian cells (Homo sapiens (Human), UniProt Q05586+Q13224); test: Whole-cell patch clamp of mammalian cells (Ionworks Barracuda), positive allosteric modulation, GluN2B; settings: for Emax: read-out: GluN2B PCA EMax (%)
Method: as §1, §2, §3, §4, §5, §6, §7

[4] = peak current amplitude, co-application with EC20 L-glutamate and 30 μM glycine, HEK293
[5] = peak current amplitude, co-application with EC20 L-glutamate and 30 μM glycine, read-out: GluN2B PCA EC50
[6] = peak current amplitude, co-application with EC20 L-glutamate and 30 μM glycine

glutamate-activated channels of the GRIN1/2A subtype stably transfected in HEK 293 cells, sequence (Q12879 whole entry, looked up, other chains not shown): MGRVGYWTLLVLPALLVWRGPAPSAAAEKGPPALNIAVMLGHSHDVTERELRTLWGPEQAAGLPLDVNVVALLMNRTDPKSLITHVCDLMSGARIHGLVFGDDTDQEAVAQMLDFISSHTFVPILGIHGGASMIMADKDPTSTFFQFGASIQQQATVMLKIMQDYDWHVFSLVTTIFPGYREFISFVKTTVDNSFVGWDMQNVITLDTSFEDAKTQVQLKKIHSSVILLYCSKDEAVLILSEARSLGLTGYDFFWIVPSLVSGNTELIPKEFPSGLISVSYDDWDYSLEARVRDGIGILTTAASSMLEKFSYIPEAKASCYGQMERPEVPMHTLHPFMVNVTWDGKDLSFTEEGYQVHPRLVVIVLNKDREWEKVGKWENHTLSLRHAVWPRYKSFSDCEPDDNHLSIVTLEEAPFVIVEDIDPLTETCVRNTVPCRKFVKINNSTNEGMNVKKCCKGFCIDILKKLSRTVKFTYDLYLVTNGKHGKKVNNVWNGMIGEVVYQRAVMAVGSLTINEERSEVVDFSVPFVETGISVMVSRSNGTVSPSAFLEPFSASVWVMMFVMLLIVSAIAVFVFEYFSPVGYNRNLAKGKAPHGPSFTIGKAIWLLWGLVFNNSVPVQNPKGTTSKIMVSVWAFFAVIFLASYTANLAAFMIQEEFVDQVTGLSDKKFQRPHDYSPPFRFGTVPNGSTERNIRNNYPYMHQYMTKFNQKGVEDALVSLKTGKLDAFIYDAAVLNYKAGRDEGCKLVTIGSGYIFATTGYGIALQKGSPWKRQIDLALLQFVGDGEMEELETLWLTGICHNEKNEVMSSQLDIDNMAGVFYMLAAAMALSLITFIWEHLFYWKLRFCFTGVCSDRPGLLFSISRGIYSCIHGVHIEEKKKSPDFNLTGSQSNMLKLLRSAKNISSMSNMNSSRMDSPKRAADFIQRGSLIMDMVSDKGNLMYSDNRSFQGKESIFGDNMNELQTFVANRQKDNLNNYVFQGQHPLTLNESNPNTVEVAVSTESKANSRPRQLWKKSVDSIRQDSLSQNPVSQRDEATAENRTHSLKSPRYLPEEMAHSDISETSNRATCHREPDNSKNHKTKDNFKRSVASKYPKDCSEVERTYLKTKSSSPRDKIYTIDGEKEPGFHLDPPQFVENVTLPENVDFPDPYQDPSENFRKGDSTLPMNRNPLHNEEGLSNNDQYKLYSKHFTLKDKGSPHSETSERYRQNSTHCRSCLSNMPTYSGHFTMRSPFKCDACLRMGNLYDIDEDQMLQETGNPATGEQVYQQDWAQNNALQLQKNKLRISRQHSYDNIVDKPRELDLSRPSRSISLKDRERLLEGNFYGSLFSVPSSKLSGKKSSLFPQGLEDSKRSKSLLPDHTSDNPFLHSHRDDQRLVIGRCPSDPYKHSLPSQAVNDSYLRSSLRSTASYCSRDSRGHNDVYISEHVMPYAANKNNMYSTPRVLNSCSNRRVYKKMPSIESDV
GluN1/GluN2A glutamate receptors (human GRIN1/GRIN2A) expressed in HEK293 cells, sequence (Q12879 whole entry, looked up, other chains not shown): as above
GluN2B glutamate receptors expressed in mammalian cells, sequence (Q13224 27-1484, other chains not shown): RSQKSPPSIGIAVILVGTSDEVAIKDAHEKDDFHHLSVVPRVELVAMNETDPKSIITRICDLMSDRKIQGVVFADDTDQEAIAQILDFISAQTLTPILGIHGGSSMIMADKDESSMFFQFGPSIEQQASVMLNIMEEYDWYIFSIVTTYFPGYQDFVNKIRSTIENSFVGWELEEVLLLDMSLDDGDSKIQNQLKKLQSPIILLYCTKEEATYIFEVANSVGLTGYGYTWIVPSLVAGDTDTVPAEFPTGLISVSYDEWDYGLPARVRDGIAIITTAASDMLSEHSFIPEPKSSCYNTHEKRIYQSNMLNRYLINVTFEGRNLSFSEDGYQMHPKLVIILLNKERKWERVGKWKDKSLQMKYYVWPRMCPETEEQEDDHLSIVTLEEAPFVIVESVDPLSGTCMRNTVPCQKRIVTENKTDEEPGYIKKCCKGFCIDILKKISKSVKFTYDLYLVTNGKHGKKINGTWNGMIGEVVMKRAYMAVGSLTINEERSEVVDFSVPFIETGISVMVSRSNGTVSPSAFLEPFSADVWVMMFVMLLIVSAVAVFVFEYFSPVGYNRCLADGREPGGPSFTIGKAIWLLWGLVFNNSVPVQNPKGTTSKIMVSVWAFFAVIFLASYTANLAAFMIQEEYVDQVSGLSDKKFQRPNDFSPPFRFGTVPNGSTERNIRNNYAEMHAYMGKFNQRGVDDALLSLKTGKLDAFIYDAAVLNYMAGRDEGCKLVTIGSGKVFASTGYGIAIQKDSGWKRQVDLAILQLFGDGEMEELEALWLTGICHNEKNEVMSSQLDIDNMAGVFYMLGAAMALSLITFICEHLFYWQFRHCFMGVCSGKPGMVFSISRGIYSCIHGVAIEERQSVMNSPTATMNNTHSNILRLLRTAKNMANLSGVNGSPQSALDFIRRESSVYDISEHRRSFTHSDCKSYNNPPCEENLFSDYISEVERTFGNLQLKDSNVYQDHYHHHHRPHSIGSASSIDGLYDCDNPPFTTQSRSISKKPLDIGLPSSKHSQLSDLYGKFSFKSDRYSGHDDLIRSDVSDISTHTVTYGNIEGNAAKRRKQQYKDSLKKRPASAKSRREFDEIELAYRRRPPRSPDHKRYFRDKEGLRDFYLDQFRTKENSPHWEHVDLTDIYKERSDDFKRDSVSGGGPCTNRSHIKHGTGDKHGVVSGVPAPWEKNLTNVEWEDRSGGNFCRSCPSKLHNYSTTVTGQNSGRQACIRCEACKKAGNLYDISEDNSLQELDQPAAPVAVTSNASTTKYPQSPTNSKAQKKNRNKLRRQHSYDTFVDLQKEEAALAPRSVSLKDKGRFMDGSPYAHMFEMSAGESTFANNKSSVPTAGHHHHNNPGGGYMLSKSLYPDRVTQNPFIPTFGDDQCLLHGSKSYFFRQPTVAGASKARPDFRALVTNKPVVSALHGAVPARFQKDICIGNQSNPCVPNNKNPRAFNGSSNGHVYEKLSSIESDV

C[C@@H]([C@H]1CC[C@H]2[C@@H]3CC=C4C[C@](O)(C(F)(F)F)CC[C@]4(C)[C@H]3CC[C@]12C)[C@H](O)C(F)(F)F [Compound 1, (3S,8S,9S,10R,13S,14S,17R)-10,13-dimethyl-17-((2S,3S)-4,4,4-trifluoro-3-hydroxybutan-2-yl)-3-(trifluoromethyl)-2,3,4,7,8,9,10,11,12,13,14,15,16,17-tetradecahydro-1H-cyclopenta[a]phenanthren-3-ol]
activation at 1 µM [1]: -40 to -10%

COC[C@]1(O)CC[C@@]2(C)[C@@H](CC[C@@H]3[C@@H]2CC[C@]2(C)[C@@H]([C@H](C)[C@H](O)CCC(C)C)CC[C@@H]32)C1 [Compound 2, (3S,5S,8R,9S,10S,13S,14S,17R)-17-((2S,3R)-3-hydroxy-6-methylheptan-2-yl)-3-(methoxymethyl)-10,13-dimethylhexadecahydro-1H-cyclopenta[a]phenanthren-3-ol]
activation at 1 µM [1]: < -40%

CC[C@]1(O)CC[C@@]2(C)[C@@H](CC[C@@H]3[C@@H]2CC[C@]2(C)[C@@H]([C@H](C)[C@@H](O)c4cccnc4)CC[C@@H]32)C1 [Compound 7, (3S,5S,8R,9S,10S,13S,14S,17R)-3-ethyl-17-((1R,2S)-1-hydroxy-1-(pyridin-3-yl)propan-2-yl)-10,13-dimethylhexadecahydro-1H-cyclopenta[a]phenanthren-3-ol]
activation at 1 µM [1]: -10 to 10%

COC[C@]1(O)CC[C@@]2(C)[C@H](CC[C@@H]3[C@@H]2CC[C@]2(C)[C@@H]([C@H](C)[C@@H](O)C(F)(F)F)CC[C@@H]32)C1 [Compound 9, (3S,5R,8R,9S,10S,13S,14S,17R)-3-(methoxymethyl)-10,13-dimethyl-17-((2S,3R)-4,4,4-trifluoro-3-hydroxybutan-2-yl)hexadecahydro-1H-cyclopenta[a]phenanthren-3-ol]
activation at 1 µM [1]: -40 to -10%

CC[C@]1(O)CC[C@@]2(C)[C@@H](CC[C@@H]3[C@@H]2CC[C@]2(C)[C@@H]([C@H](C)[C@@H](O)C4CC4)CC[C@@H]32)C1 [Compound 10, (3S,5S,8R,9S,10S,13S,14S,17R)-17-((1S,2S)-1-cyclopropyl-1-hydroxypropan-2-yl)-3-ethyl-10,13-dimethylhexadecahydro-1H-cyclopenta[a]phenanthren-3-ol]
activation at 1 µM [1]: < -40%

CC[C@]1(O)CC[C@@]2(C)[C@@H](CC[C@@H]3[C@@H]2CC[C@]2(C)[C@@H]([C@H](C)[C@H](O)C(F)(F)F)CC[C@@H]32)C1 [Compound 11, (3S,5S,8R,9S,10S,13S,14S,17R)-3-ethyl-10,13-dimethyl-17-((2S,3S)-4,4,4-trifluoro-3-hydroxybutan-2-yl)hexadecahydro-1H-cyclopenta[a]phenanthren-3-ol]
activation at 1 µM [1]: < -40%

CC[C@]1(O)CC[C@@]2(C)[C@H](CC[C@@H]3[C@@H]2CC[C@]2(C)[C@@H]([C@H](C)[C@H](O)CCC(C)(C)C)CC[C@@H]32)C1 [Compound 15, (3S,5R,8R,9S,10S,13S,14S,17R)-3-ethyl-17-((2S,3R)-3-hydroxy-6,6-dimethylheptan-2-yl)-10,13-dimethylhexadecahydro-1H-cyclopenta[a]phenanthren-3-ol]
activation at 1 µM [1]: -40 to -10%

CC[C@]1(O)CC[C@@]2(C)[C@@H](CC[C@@H]3[C@@H]2CC[C@]2(C)[C@@H]([C@H](C)[C@@H](O)C(F)(F)F)CC[C@@H]32)C1 [Compound 16, (3S,5S,8R,9S,10S,13S,14S,17R)-3-ethyl-10,13-dimethyl-17-((2S,3R)-4,4,4-trifluoro-3-hydroxybutan-2-yl)hexadecahydro-1H-cyclopenta[a]phenanthren-3-ol]
activation at 1 µM [1]: -40 to -10%

CC[C@]1(O)CC[C@@]2(C)[C@@H](CC[C@@H]3[C@@H]2CC[C@]2(C)[C@@H]([C@H](C)[C@H](O)CC4CCOCC4)CC[C@@H]32)C1 [Compound 18, (3S,5S,8R,9S,10S,13S,14S,17R)-3-ethyl-17-((2S,3R)-3-hydroxy-4-(tetrahydro-2H-pyran-4-yl)butan-2-yl)-10,13-dimethylhexadecahydro-1H-cyclopenta[a]phenanthren-3-ol]
activation at 1 µM [1]: -10 to 10%

CC[C@]1(O)CC[C@@]2(C)C(=CC[C@H]3[C@@H]4CC[C@H]([C@H](C)[C@@H](O)CCC(C)C)[C@@]4(C)CC[C@@H]32)C1 [Compound 77, (3S,8S,9S,10R,13S,14S,17R)-3-ethyl-17-((2S,3S)-3-hydroxy-6-methylheptan-2-yl)-10,13-dimethyl-2,3,4,7,8,9,10,11,12,13,14,15,16,17-tetradecahydro-1H-cyclopenta[a]phenanthren-3-ol]
EC50 [2]: > 1000 nM | Emax [2, 4]: < 100% | EC50 [3, 5]: > 1000 nM | Emax [3, 6]: < 100%

C[C@@H]([C@H]1CC[C@H]2[C@@H]3CC[C@H]4C[C@](O)(C(F)(F)F)CC[C@]4(C)[C@H]3CC[C@]12C)[C@@H](O)C[C@@H](O)c1ccccc1 [Compound 79, (1R,3S,4S)-4-((3S,5S,8R,9S,10S,13S,14S,17R)-3-hydroxy-10,13-dimethyl-3-(trifluoromethyl)hexadecahydro-1H-cyclopenta[a]phenanthren-17-yl)-1-phenylpentane-1,3-diol]
EC50 ([2]; peak current amplitude, co-application with EC20 L-glutamate and 30 μM glycine, HEK293, read-out: GluN2A PCA EC50): > 1000 nM | Emax [2, 4]: < 100% | EC50 [3]: > 1000 nM | Emax [3]: < 100%

CC[C@]1(O)CC[C@H]2[C@H](CC[C@@H]3[C@@H]2CC[C@]2(C)[C@@H]([C@H](C)[C@@H](O)CCC(C)C)CC[C@@H]32)C1 [Compound 82, (3S,5R,8R,9R,10S,13S,14S,17R)-3-ethyl-17-((2S,3S)-3-hydroxy-6-methylheptan-2-yl)-13-methylhexadecahydro-1H-cyclopenta[a]phenanthren-3-ol]
EC50 [2]: > 1000 nM | Emax [2, 4]: < 100% | EC50 [3, 5]: > 1000 nM | Emax [3, 6]: < 100%
